The source of these data is PMC11173422, “Substitution-Induced Mechanistic Switching in SNAr-Warheads for Cysteine Proteases” (Molecules, 2024).

Like-named read-outs stand apart in the source and are kept apart here.

In one series the target is T1, Rhodesain (TbCatL) (Trypanosoma brucei rhodesiense, UniProt Q95PM0).
T1 construct: stably transformed with the rhodesain ΔC gene cloned into the pPICZαA vector; made in house; host or cells: Pichia pastoris X-33 (pPICZαA, secreted into the culture supernatant)
T1 sequence (Q95PM0 entry or part of it): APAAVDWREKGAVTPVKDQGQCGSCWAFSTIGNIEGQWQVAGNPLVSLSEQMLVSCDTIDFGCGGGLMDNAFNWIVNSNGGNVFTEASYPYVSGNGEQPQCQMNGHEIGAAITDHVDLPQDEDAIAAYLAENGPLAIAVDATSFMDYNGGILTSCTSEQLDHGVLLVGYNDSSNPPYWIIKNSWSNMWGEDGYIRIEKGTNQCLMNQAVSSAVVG
In words: Fluorimetric rhodesain inhibition assay with Z-Phe-Arg-AMC. The following applies: for Inhibition of rhodesain, in words: SAR discussion; for Mode of inhibition (time dependency, reversibility): from progress curves. Format: biochemical. The procedure:
Inhibition of rhodesain was assessed using Z-Phe-Arg-AMC as a fluorogenic substrate. IC50 or KI^app were determined depending on the time dependency of the progress curves. Because a competitive mode of inhibition can be assumed, Ki (for reversible inhibition) and KI (for irreversible inhibition) were calculated using the Cheng–Prusoff equation [30].
Fluorimetric enzyme assays were performed as described in the literature. Information regarding buffers, concentrations, the employed substrate, as well as data analysis for linear and non-linear regression is given in the SI. In short, the cleavage of a fluorogenic substrate by the protease of interest is detected in the presence of different concentrations of inhibitors. […] For the irreversible compound with non-linear regression, the kinetic kinact value was also plotted, from which k2nd was calculated.
To investigate this influence, its inhibition of […]
nucleophilic reducing agent for enzyme activation).
Reversibility assessment for time-dependent inhibitor 9
After this incubation period, the samples
Rhodesain, CatL, CatB Assays
Continuous fluorometric measurements with a Tecan Spark 10M reader in a 96 well plate format was used to evaluate activity. Rhodesain, HsCatB and HsCatL were diluted in their respective activation buffer prior to use. Rhodesain was incubated in this for 30–60 min prior to use. The enzyme of interest (5 µL) was incubated with the inhibitor in question (10 µL), and its specific substrate (5 µL) in the respective assay buffer. The fluorescence signal was measured every 30 s for 10 min at room temperature with the corresponding excitation/emission wavelengths (λex = 380 nm / λem = 460 nm). The final concentrations and buffer compositions are depicted in SI-Table S1. Inner-filter effect corrections were performed as described in literature if deviations >5% were detected.
SI-Table S1: Information on assay conditions. [E] = final enzyme concentration, [S] = final substrate concentration in well.
For the evaluation of 9 in absence of DTT (depicted in SI-Figure S5): 5 nM final rhodesain concentration that was activated before in presence of TCEP (alternative activation buffer: 5 mM DTT → 5 mM TCEP) […]
Time-independent behavior
For inhibitors that behaved time-independently during the measurements (i.e., F-t-diagrams show constant slope), IC50 values using defined dilution series for each compound were calculated with GraphPad PRISM by fitting the remaining enzymatic activity to a four parameter IC50 equation with Y [%] as the residual enzyme activity, Ymax as the maximum value of the dose response curve at inhibitor concentrations [I] = 0 µM, Ymin as the minimum value at high inhibitor concentrations and s as the Hill […]
y [%residual activity]=௬ౣ౗౮ ି௬ౣ౟౤ೞ + y୫୧୬ eq. 1
It is assumed that the inhibitors bind competitively in respect to the substrate. Due to the dependence of the IC50 value on the substrate affinity and concentration, the Ki values were calculated with the Cheng-Prusoff equation, using the final substrate concentration [S] and the Michaelis-Menten constant KM to […]
For inhibitors that behaved time-dependently during the measurements (i.e., F-t-diagrams show reducing slopes over time), KIapp and kinact values using defined dilution series for each compound were calculated

In series [1] the target is T2, rhodesain (Trypanosoma brucei rhodesiense, UniProt Q95PM0). The series is described as follows: MALDI-TOF-MS (sinapinic acid matrix) adduct detection. Format: binding. Set-up: stably transformed with the rhodesain ΔC gene cloned into the pPICZαA vector; made in house; host or cells: Pichia pastoris X-33 (pPICZαA, secreted into the culture supernatant). The following applies: 100 µM inhibitor, 10 µM rhodesain, acidic sinapinic acid matrix. On the procedure:
Using MALDI-TOF-MS, differentiation between non-covalent and covalent ligand-target complexes is possible if acidic matrices are used that interfere with ionic and dipole interactions (i.e., suppress non-covalent interactions).
Protein mass spectrometry was performed as described before, but also described in detail in the SI. In short, rhodesain was incubated with a surplus of inhibitor under conditions similar to those of the enzyme assays described above to enable complex formation. This sample was desalted and then incorporated into a sinapinic acid matrix, which was then subjected to mass spectrometry. Data analysis was performed using mMass.
Mass spectrometric experiments were performed as described before. Lyophilized rhodesain was first […]
manufacturer’s instructions.
Then, the mixtures were left in the fume hood for cocrystallization until dry.
TOF/TOF mass spectrometer (Bruker Daltonik GmbH, Bremen, Germany). The instrument is equipped […]
cropping from 22–27 kDa was performed.
Baseline was corrected with standard settings. […]

Series [2] can be described thus: Stability towards general substitution reactions (water, DTT). Format: physicochemical. The following applies: NH4OAc buffer pH 5.5, with or without DTT; UV spectra and LCMS. The procedure:
0.1 inhibitor concentration
SI-Figure S1: (A) Absorption spectra of 2, 3 and 9 with different concentrations, visualizing a potential need for mathematical correction at high concentrations for nitroanilines. ( B) Experimental proof that mathematical correction of attenuation of AMC fluorescence is only necessary for inhibitor concentrations ≥10 µM. For 2 and 3 at 10 µM attenuation of fluorescence signal is 14 and 11 %, respectively. At concentrations relevant for IC50 evaluation, no relevant interference is detected.
Stability measurements towards general substitution reactions
2, 3 and 9 (from 20 mM stock solutions in DMSO) were diluted into NH4OAc buffer (pH 5.5) to final concentrations of 100 µM, 125 µM or 1 mM and incubated in buffer alone or in presence of as much DTT as present in the fluorimetric rhodesain assay and the MALDI-TOF experiment, respectively. This was recorded with absorption spectroscopy (results depicted in SI-Figure S2) on a Tecan Spark 10M plate reader in UV-transparent 96-well plates (Greiner UV-Star®, 655801, 200 µL volume per sample) or with LCMS (see “measurement setup for LCMS” as described under the method for PAMPA; results depicted […]
system at pH 5.5 over the course of the time necessary for the employed assays. There is a small difference detectable in reactivity of 3 with 5 mM DTT: a slight but time-dependent change in UV-spectrum was found where the maximum at 265 nm decreased in intensity, indicating a small degree of degradation […]
that is not observed with lower DTT concentration or with 2 at all. The formation takes place on a much larger timescale as the time for detection in the assays (minutes vs. hours) and is therefore irrelevant to the performed evaluations. […]
repeated LCMS analysis indicates the formation of the phenol (substitution of fluoride) over the course of hours. This also seems to happen in the DMSO stock solution to a small degree after some usage (explains the presence of phenol at 0 min). Accordingly, in presence of DTT, both the phenol and the thioether are detected by MS for this compound. […]

Series [3] has as its target T2, rhodesain. To be noted: 1.5 h incubation (9: 400 µM; K11777: 500 nM), diluted 1:100, n = 2; uninhibited 0.68 ± 0.05 FU/s.
Procedure: rhodesain was reassessed in DTT-free conditions (tris(2-carboxyethyl)phosphine = TCEP used as a non-
The reactivity towards water should not be seriously
To assess reversibility of the time-dependent inhibitor [4], and to therefore discriminate between slow-
reversible and irreversible inhibition, rhodesain was incubated with compound 9 for 1.5 h, at an inhibitor
concentration of 400 µM (7.5x KI) to enable the quantita tive progression of a covale nt irreversible reaction
if one is possible. The same incubation was performed with DMSO alone as a negative control and in
presence of 500 nM K11777 as a positive irreversible control. After this incubation period, the samples
were diluted 1:100 (to 4 µM of compound 9 (0.075x KI)) into assay buffer containing substrate to record
the degree of recovery of enzymatic activity over the course of 10 min.
Raw activity of rhodesain after dilution was

T2 sequence (Q95PM0 entry or part of it): as above

As for `CC(C)C[C@H](NC(=O)[C@H](Cc1ccccc1)NC(=O)c1cccc([N+](=O)[O-])c1F)C(=O)O` [Compound 10], on Rhodesain (TbCatL), the Ki turned out to be 14 µM and the “Inhibition of rhodesain, in words” value is “ineffective”.

In turn, `O=C(O)[C@@H](Cc1ccccc1)NC(=O)[C@@H](CCc1ccccc1)Nc1cc(F)c([N+](=O)[O-])cc1[N+](=O)[O-]` [Compound 18] came in with a Ki at Rhodesain (TbCatL) of 12 µM.

Regarding `CC(C)C[C@H](NC(=O)[C@H](Cc1ccccc1)NC(=O)c1cc([N+](=O)[O-])ccc1F)C(=O)O` [Compound 11], on Rhodesain (TbCatL), the Ki is 13 µM and the “Inhibition of rhodesain, in words” value is given as “ineffective”.

Take `CC(C)C[C@H](NC(=O)[C@H](Cc1ccccc1)Nc1ccc([N+](=O)[O-])c([N+](=O)[O-])c1)C(=O)O` [Compound 2]: the “Adduct with rhodesain in MALDI-TOF-MS” value on rhodesain [1] is “no adduct was found”. Further, the “Reactivity towards unspecific nucleophiles (water and DTT)” value in series [2] was “no relevant tendency towards either side reaction”. In addition, at Rhodesain (TbCatL), half-maximal inhibition (IC50) required 0.0364 ± 0.0023 µM; the Ki is 0.0028 ± 0.0002 µM; the “Mode of inhibition (time dependency, reversibility)” value (“Mode of inhibition” below) is given as “time-independent”.

On to `C[C@@H](Nc1cc(F)c([N+](=O)[O-])cc1[N+](=O)[O-])C(=O)N[C@H](CCc1ccccc1)C(=O)O` [Compound 15], for which, at Rhodesain (TbCatL), the Ki was found to be 22 µM.

With `CC(C)C[C@H](NC(=O)[C@H](Cc1ccccc1)Nc1cc(Cl)ncn1)C(=O)O` [Compound 6], on Rhodesain (TbCatL), the Ki was 102 µM and the “Inhibition of rhodesain, in words” value is recorded as “did not produce an active inhibitor”.

Regarding `CN1CCN(C(=O)N[C@@H](Cc2ccccc2)C(=O)N[C@H](/C=C/S(=O)(=O)c2ccccc2)CCc2ccccc2)CC1` [Compound K11777, reference compound], the “Activity of rhodesain after incubation and subsequent dilution” value on rhodesain [3] is −0.01 ±0.00 FU/s. Moreover, the “Adduct with rhodesain in MALDI-TOF-MS” value at rhodesain [1] was “showed the expected mass shift representative of covalent adduct formation”.

In the case of `CC(C)C[C@H](NC(=O)[C@H](Cc1ccccc1)Nc1cc(F)c([N+](=O)[O-])cc1[N+](=O)[O-])C(=O)O` [Compound 3], the “Adduct with rhodesain in MALDI-TOF-MS” value at rhodesain [1] was “an adduct corresponding to the mass of the inhibitor was observed”. Besides, the “Reactivity towards unspecific nucleophiles (water and DTT)” value in series [2] is “no relevant tendency towards either side reaction”. On Rhodesain (TbCatL), the half-inhibitory concentration (IC50) was 0.0245 ± 0.0017 µM; the Ki was determined as 0.0019 ± 0.0001 µM; the “Mode of inhibition” value was “time-independent”.

As to `O=C(O)[C@H](CCc1ccccc1)NC(=O)[C@H](Cc1ccccc1)Nc1cc(F)c([N+](=O)[O-])cc1[N+](=O)[O-]` [Compound 17], at Rhodesain (TbCatL), the Ki came out at 6 µM.

`CC(C)C[C@H](NC(=O)[C@H](Cc1ccccc1)NC(=O)Nc1ccc(F)c([N+](=O)[O-])c1)C(=O)O` [Compound 7]: on Rhodesain (TbCatL), the Ki came out at 50 µM and the “Inhibition of rhodesain, in words” value was “did not produce an active inhibitor”.

With `CC(C)C[C@H](NC(=O)[C@H](Cc1ccccc1)NC(=O)c1ccc(Cl)nc1Cl)C(=O)O` [Compound 8], at Rhodesain (TbCatL), the Ki came to 30 µM and the “Inhibition of rhodesain, in words” value is listed as “did not yield relevant inhibition”.

Turning to `C[C@H](NC(=O)[C@H](CCc1ccccc1)Nc1cc(F)c([N+](=O)[O-])cc1[N+](=O)[O-])C(=O)O` [Compound 16], the Ki on Rhodesain (TbCatL) is 13 µM.

As for `CC(C)C[C@H](NC(=O)[C@H](Cc1ccccc1)NC(=O)c1cc([N+](=O)[O-])c(Cl)cc1[N+](=O)[O-])C(=O)O` [Compound 12], at Rhodesain (TbCatL), the Ki is 25 µM and the “Mode of inhibition” value is given as “abolished the time-dependent mode of inhibition”.

Compound `C[C@H](Nc1cc(F)c([N+](=O)[O-])cc1[N+](=O)[O-])C(=O)N[C@@H](CCc1ccccc1)C(=O)O` [Compound 13] yielded a Ki on Rhodesain (TbCatL) of 13 µM.

In the case of `C[C@@H](NC(=O)[C@@H](CCc1ccccc1)Nc1cc(F)c([N+](=O)[O-])cc1[N+](=O)[O-])C(=O)O` [Compound 14, ((R)-2-((5-fluoro-2,4-dinitrophenyl)amino)-4-phenylbutanoyl)-D-alanine], the Ki at Rhodesain (TbCatL) worked out at 27 µM.

For “N-(5-fluoro-2,4-dinitrobenzoyl)-L-phenylalanyl-L-leucine [Compound 9]”, the “Activity of rhodesain after incubation and subsequent dilution” value at rhodesain [3] was −0.01 ±0.00 FU/s. The “Adduct with rhodesain in MALDI-TOF-MS” value at rhodesain [1] is listed as “An adduct was also found for 9, albeit with a shift lower than the mass of the inhibitor”. In addition, in series [2], the “Reactivity towards unspecific nucleophiles (water and DTT)” value is recorded as “relevant reactivity towards unspecific nucleophiles”. The Ki stood at 200 µM at Rhodesain (TbCatL) (DTT-free conditions, TCEP for enzyme activation, read-out: KIapp); 53 µM at Rhodesain (TbCatL) (KI, irreversible time-dependent inhibition, from KI^app by Cheng–Prusoff, read-out: Ki or KI); 700 µM at Rhodesain (TbCatL) (standard conditions with DTT, read-out: KIapp). In addition, the “Mode of inhibition” value on Rhodesain (TbCatL) is on record as “irreversible”.

On Rhodesain (TbCatL), `CC(C)C[C@H](NC(=O)[C@H](Cc1ccccc1)Nc1ccc([N+](=O)[O-])cc1)C(=O)O` [Compound 4] came in with a Ki of 17 µM.

With `CC(C)C[C@H](NC(=O)[C@H](Cc1ccccc1)Nc1ccccc1[N+](=O)[O-])C(=O)O` [Compound 1], the Ki on Rhodesain (TbCatL) worked out at 39 µM.

Regarding `CC(C)C[C@H](NC(=O)[C@H](Cc1ccccc1)Nc1cc(F)ccc1[N+](=O)[O-])C(=O)O` [Compound 5], at Rhodesain (TbCatL), the Ki was 44 µM and the “Inhibition of rhodesain, in words” value was “did not result in inhibition”.
